Assay: xn = mol fraction of the nth substance listed
Conditions: Liquid, Vibrating tube method, x1 = 1

CCO [ethanol] + CC1CCCCC1
mass density [kg/m3]
Conditions	100 kPa	5000 kPa	10000 kPa	15000 kPa	20000 kPa	25000 kPa	30000 kPa	35000 kPa	40000 kPa	45000 kPa
283.15 K	798	802	805.9	809.5	813	816.4	819.7	822.8	825.9	828.8
293.15 K	789.5	793.7	797.8	801.6	805.3	808.9	812.3	815.6	818.7	821.8
303.15 K	780.9	785.3	789.6	793.7	797.5	801.3	804.8	808.2	811.5	814.7
313.15 K	772.1	776.8	781.3	785.6	789.6	793.5	797.2	800.8	804.2	807.6
323.15 K	763.3	768.3	773	777.6	781.8	785.9	789.7	793.5	797.1	800.5
333.15 K	754	759.3	764.3	769.1	773.6	777.8	781.9	785.8	789.5	793.1
343.15 K	744.5	750.1	755.5	760.5	765.3	769.8	774	778.1	782	785.7
353.15 K	–	740.6	746.4	751.7	756.7	761.5	766	770.2	774.3	778.2

Source: the NIST ThermoML archive (doi:10.1016/j.jct.2005.03.016)
